Calls of active or inactive are those of the source. The rule behind the calls is not given here. Non-standard residues stand in square brackets, D forms with d. Residues, ends and D or L forms follow the SMILES beside them. ξ: configuration not given here. ξS = NC(CO)C(=O)O

For orientation: EC50 means the concentration that produces a half-maximal response.

Experiment [1] has as its target T1, BTB/POZ domain-containing protein KCTD12 (Homo sapiens, UniProt Q96CX2). Description: Binding affinity to recombinant human 6X His-tagged KCTD12 T1 domain (27 to 131 residues) expressed in Escherichia coli BL21 DE3 cells preincubated for 1 hr followed by probing with HRP-conjugated 6X-His tag antibody for 0.5 hrs by SPOT peptide microarray analysis.
For experiment [2], the target named is BTB/POZ domain-containing protein KCTD16 (Homo sapiens) (UniProt Q68DU8). Description: Displacement of TAMRA-AAG-SLQLPILHHAYLPSIGGV from recombinant 6X His tagged KCTD16 T1 domain (unknown origin) by fluorescence polarization assay. (In general: Fluorescence polarisation rises when a labelled molecule tumbles more slowly, as on binding a larger partner.)
Sequence of BTB/POZ domain-containing protein KCTD16 (Homo sapiens) (Q68DU8 whole entry, the tested form may be a part): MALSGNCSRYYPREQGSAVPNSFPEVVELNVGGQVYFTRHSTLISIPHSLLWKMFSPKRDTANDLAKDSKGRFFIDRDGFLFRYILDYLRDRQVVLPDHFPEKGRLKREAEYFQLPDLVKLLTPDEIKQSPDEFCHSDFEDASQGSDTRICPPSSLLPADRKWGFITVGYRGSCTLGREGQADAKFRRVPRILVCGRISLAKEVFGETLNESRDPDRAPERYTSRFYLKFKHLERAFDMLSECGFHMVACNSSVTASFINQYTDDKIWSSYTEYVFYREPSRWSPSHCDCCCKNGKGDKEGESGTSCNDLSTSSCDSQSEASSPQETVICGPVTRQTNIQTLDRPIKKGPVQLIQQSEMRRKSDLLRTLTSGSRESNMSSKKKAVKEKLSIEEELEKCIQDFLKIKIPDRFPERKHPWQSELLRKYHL
Experiment [3] concerns the target BTB/POZ domain-containing protein KCTD8 (Homo sapiens) (UniProt Q6ZWB6). Description: Displacement of TAMRA-AAG-SLQLPILHHAYLPSIGGV from recombinant human 6X His-tagged KCTD8 T1 domain (37 to 148 residues) expressed in Escherichia coli BL21 DE3 cells by fluorescence polarization assay.
For experiment [4] the target is unchanged. Description: Binding affinity to Myc-tagged full length KCTD8 (unknown origin) expressed in HEK293 cells using resin-bound immobilized compound by pull down analysis. The experiment is classed as cell-based.
The target of experiment [5] is BTB/POZ domain-containing protein KCTD8 (Mus musculus) (UniProt Q50H33). Description: Binding affinity to KCTD8 in wild type mouse brain membrane using resin-bound immobilized compound incubated for overnight by pull-down experiment based immunoblot analysis. In kind it is cell membranes.
Sequence of BTB/POZ domain-containing protein KCTD8 (Mus musculus) (Q50H33 whole entry, the tested form may be a part): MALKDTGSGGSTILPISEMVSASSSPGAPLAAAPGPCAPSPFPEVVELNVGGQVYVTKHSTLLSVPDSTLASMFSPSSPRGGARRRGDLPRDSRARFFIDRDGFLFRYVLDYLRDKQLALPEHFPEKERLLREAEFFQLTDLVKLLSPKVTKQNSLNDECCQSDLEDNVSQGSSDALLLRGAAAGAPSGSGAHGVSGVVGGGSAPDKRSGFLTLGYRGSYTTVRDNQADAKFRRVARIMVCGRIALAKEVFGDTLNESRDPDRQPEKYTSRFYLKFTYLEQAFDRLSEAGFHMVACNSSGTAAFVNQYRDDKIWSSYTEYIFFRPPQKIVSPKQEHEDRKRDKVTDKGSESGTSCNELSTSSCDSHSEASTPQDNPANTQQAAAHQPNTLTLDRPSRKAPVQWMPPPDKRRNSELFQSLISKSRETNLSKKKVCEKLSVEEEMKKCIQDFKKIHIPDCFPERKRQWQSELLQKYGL
The target in experiment [6] is BTB/POZ domain-containing protein KCTD16 (Homo sapiens) (UniProt Q68DU8). Description: Binding affinity to recombinant 6X His-tagged KCTD16 T1 domain (unknown origin) assessed as high-order oligomer formation by measuring oligomer molecular weight at protein:compound concentration ratio of 1:2 by SEC-MALS analysis (reference value: […] +/- 2.5 kDa). In general terms: In gel filtration, larger molecules generally elute earlier.

Experiment [7] deals with BTB/POZ domain-containing protein KCTD8 (Mus musculus) (UniProt Q50H33). Description: Binding affinity to KCTD8 in wild type mouse brain cytoplasmic fraction using resin-bound immobilized compound incubated for overnight by pull-down experiment based immunoblot analysis. The experiment is classed as subcellular.
Experiment [8] deals with BTB/POZ domain-containing protein KCTD12 (Mus musculus) (UniProt Q6WVG3). Description: Binding affinity to KCTD12 in wild type mouse brain membrane using resin-bound immobilized compound incubated for overnight by pull-down experiment based immunoblot analysis. The experiment is classed as cell membranes. For orientation: A western blot detects proteins with antibodies after separation by electrophoresis.
Sequence of BTB/POZ domain-containing protein KCTD12 (Mus musculus) (Q6WVG3 whole entry, the tested form may be a part): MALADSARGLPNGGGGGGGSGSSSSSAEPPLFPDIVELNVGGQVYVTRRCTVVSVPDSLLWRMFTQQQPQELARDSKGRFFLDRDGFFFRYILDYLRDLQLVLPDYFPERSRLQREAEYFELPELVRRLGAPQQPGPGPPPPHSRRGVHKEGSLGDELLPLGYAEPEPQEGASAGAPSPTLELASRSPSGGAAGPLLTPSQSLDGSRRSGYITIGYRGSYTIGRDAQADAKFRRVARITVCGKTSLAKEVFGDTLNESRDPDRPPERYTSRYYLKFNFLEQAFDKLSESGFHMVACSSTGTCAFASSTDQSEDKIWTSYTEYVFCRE

Experiment [9] has as its target BTB/POZ domain-containing protein KCTD16 (Mus musculus) (UniProt Q5DTY9). Description: Binding affinity to KCTD16 in wild type mouse brain membrane using resin-bound immobilized compound incubated for overnight by pull-down experiment based immunoblot analysis. The experiment is classed as cell membranes.
The target is the same in experiment [10]. Description: Binding affinity to KCTD16 in wild type mouse brain cytoplasmic fraction using resin -bound immobilized compound incubated for overnight by pull-down experiment based immunoblot analysis. The experiment is classed as subcellular.
In experiment [11] the target is BTB/POZ domain-containing protein KCTD16 (Homo sapiens) (UniProt Q68DU8). Description: Binding affinity to recombinant 6X His-tagged KCTD16 T1 domain (unknown origin) assessed as increase in thermal stability of the protein at protein:compound ratio of 1:5 by Thermofluor analysis.
For experiment [12] the target is unchanged. Description: Binding affinity to Myc-tagged full length KCTD16 (unknown origin) expressed in HEK293 cells using resin-bound immobilized compound by pull down analysis. The experiment is classed as cell-based.
In experiment [13] the target is BTB/POZ domain-containing protein KCTD12 (Mus musculus) (UniProt Q6WVG3). Description: Binding affinity to KCTD12 in wild type mouse brain cytoplasmic fraction using resin-bound immobilized compound incubated for overnight by pull-down experiment based immunoblot analysis. The experiment is classed as subcellular.
In experiment [14] the target is T1, BTB/POZ domain-containing protein KCTD12. Description: Displacement of TAMRA-AAG-SLQLPILHHAYLPSIGGV from recombinant human 6X His-tagged KCTD12 T1 domain (27 to 131 residues) expressed in Escherichia coli BL21 DE3 cells by fluorescence polarization assay.

Sequence of BTB/POZ domain-containing protein KCTD16 (Mus musculus) (Q5DTY9 whole entry, the tested form may be a part): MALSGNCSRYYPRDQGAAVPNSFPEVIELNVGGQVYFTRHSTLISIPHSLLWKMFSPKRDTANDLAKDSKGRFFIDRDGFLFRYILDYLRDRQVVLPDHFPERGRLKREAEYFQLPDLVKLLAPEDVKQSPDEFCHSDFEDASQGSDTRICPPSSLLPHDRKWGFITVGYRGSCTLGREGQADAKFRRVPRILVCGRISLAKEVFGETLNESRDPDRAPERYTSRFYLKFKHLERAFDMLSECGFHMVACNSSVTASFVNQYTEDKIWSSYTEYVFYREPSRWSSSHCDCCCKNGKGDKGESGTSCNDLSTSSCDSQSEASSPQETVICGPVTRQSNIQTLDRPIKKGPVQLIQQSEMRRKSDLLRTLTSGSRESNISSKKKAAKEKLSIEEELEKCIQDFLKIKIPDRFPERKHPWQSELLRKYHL
T1 sequence (Q96CX2 whole entry, the tested form may be a part): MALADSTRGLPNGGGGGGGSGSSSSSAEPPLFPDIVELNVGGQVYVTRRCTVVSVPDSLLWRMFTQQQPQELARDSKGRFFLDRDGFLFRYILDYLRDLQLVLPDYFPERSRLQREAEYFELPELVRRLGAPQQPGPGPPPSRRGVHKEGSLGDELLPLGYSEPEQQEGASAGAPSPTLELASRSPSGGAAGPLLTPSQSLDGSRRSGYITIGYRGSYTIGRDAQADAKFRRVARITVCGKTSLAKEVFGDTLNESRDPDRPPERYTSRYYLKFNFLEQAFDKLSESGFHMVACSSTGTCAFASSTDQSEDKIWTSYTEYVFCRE
Sequence of BTB/POZ domain-containing protein KCTD8 (Homo sapiens) (Q6ZWB6 whole entry, the tested form may be a part): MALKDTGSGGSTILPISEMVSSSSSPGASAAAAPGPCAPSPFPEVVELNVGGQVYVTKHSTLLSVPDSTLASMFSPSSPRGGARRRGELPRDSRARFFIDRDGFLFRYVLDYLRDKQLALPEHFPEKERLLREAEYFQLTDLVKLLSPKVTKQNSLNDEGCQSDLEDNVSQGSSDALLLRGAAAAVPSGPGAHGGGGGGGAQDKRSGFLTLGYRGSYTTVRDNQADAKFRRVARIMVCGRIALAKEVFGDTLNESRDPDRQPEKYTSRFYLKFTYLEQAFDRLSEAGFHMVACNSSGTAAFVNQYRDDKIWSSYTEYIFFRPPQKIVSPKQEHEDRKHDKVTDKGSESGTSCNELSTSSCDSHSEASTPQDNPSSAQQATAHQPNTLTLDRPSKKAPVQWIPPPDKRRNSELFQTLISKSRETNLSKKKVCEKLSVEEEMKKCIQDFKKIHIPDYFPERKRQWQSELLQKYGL

On to `CC(C)C[C@H](NC(=O)[C@H](CCCNC(=N)N)NC(=O)[C@H](CC(=O)O)NC(=O)[C@@H]1CCCN1C(=O)[C@@H]1CCCN1C(=O)[C@H](CCC(=O)O)NC(=O)[C@@H]1CCCN1)C(=O)N[C@@H](CO)C(=O)N[C@@H](CS)C(=O)N[C@@H](CC(=O)O)C(=O)NCC(=O)N[C@@H](CO)C(=O)N[C@@H](CCCNC(=N)N)C(=O)N[C@H](C(=O)N[C@@H](Cc1cnc[nH]1)C(=O)O)C(C)C`, for which the half-maximal effective concentration (EC50) entry in experiment [1] is “Not Active”.

As to `CC(C)C[C@H](NC(=O)CNC(=O)CNC(=O)[C@H](CO)NC(=O)[C@@H]1CCCN1C(=O)[C@H](CCC(=O)O)NC(=O)[C@@H]1CCCN1C(=O)[C@@H]1CCCN1C(=O)[C@H](NC(=O)[C@@H]1CCCN1C(=O)[C@@H]1CCCN1C(=O)[C@H](Cc1cnc[nH]1)NC(=O)[C@H](CCCNC(=N)N)NC(=O)[C@@H](N)CCCNC(=N)N)[C@@H](C)O)C(=O)N1CCC[C@H]1C(=O)O`, the EC50 result in experiment [1] is recorded as “Not Active”.

As for `CC[C@H](C)[C@H](NC(=O)[C@H](CO)NC(=O)[C@@H]1CCCN1C(=O)[C@H](CC(C)C)NC(=O)[C@H](Cc1ccc(O)cc1)NC(=O)[C@H](C)NC(=O)[C@H](Cc1cnc[nH]1)NC(=O)[C@H](Cc1cnc[nH]1)NC(=O)[C@H](CC(C)C)NC(=O)[C@H](NC(=O)[C@@H]1CCCN1C(=O)[C@H](CC(C)C)NC(=O)[C@H](CCC(N)=O)NC(=O)[C@H](CC(C)C)NC(=O)[C@H](CO)NC(=O)[C@H](CC(C)C)NC(=O)[C@H](CCCNC(=N)N)NC(=O)[C@@H](N)CCCNC(=N)N)[C@@H](C)CC)C(=O)O`, the outcome in experiment [2] and in experiment [3] was Active.

As for `CC[C@H](C)[C@H](NC(=O)[C@H](CO)NC(=O)[C@@H]1CCCN1C(=O)[C@H](CC(C)C)NC(=O)[C@H](Cc1ccc(O)cc1)NC(=O)[C@H](C)NC(=O)[C@H](Cc1cnc[nH]1)NC(=O)[C@H](Cc1cnc[nH]1)NC(=O)[C@H](CC(C)C)NC(=O)[C@H](NC(=O)[C@@H]1CCCN1C(=O)[C@H](Cc1ccc(O)cc1)NC(=O)[C@H](CC(N)=O)NC(=O)[C@H](Cc1ccc(O)cc1)NC(=O)[C@H](N)Cc1ccc(O)cc1)[C@@H](C)CC)C(=O)NCC(=O)NCC(=O)N[C@H](C(=O)O)C(C)C`, the result in [4], in experiment [5], in experiment [7], in experiment [8], in [9] and in experiment [10] was Active. Further, the result in experiment [11], in [12] and in experiment [13] was Active. The Activity in [6] came to 60.1 kDa.

`CC[C@H](C)[C@H](NC(=O)C(CO)NC(=O)[C@@H]1CCCN1C(=O)[C@H](CC(C)C)NC(=O)[C@H](C)NC(=O)[C@H](C)NC(=O)[C@H](Cc1cnc[nH]1)NC(=O)[C@H](Cc1cnc[nH]1)NC(=O)[C@H](CC(C)C)NC(=O)[C@@H](NC(=O)[C@@H]1CCCN1C(=O)[C@H](CC(C)C)NC(=O)[C@H](CCC(N)=O)NC(=O)[C@H](CC(C)C)NC(=O)[C@@H](N)CO)[C@@H](C)CC)C(=O)NCC(=O)NCC(=O)N[C@H](C(=O)O)C(C)C` (some centres not stated) (H-SLQLPILHHAALP[ξS]IGGV-OH): the half-maximal effective concentration (EC50) entry in [1] is given as “Not Active”. For the same compound, in experiment [14], the IC50 result is “Not Active” and the Ki entry is given as “Not Active”.

Regarding `CC[C@H](C)[C@H](NC(=O)C(CO)NC(=O)[C@@H]1CCCN1C(=O)[C@H](CC(C)C)NC(=O)[C@H](Cc1ccccc1)NC(=O)[C@H](C)NC(=O)[C@H](Cc1cnc[nH]1)NC(=O)[C@H](Cc1cnc[nH]1)NC(=O)[C@H](CC(C)C)NC(=O)[C@@H](NC(=O)[C@@H]1CCCN1C(=O)[C@H](CC(C)C)NC(=O)[C@H](CCC(N)=O)NC(=O)[C@H](CC(C)C)NC(=O)[C@@H](N)CO)[C@@H](C)CC)C(=O)NCC(=O)NCC(=O)N[C@H](C(=O)O)C(C)C` (some centres not stated) (H-SLQLPILHHAFLP[ξS]IGGV-OH), the EC50 result in experiment [1] is given as “Not Active”. In addition, in experiment [14], the IC50 entry was “Not Active” and the Ki entry was “Not Active”.

With H-AEKEERVSELRHQLQ-OH, in [1], the EC50 entry is “Not Active”.

With H-EAQDTMKTGSSTNNN-OH, the concentration giving a half-maximal response (EC50) entry in experiment [1] is recorded as “Not Active”.

As for H-EEKSRLLEKENRELE-OH, the EC50 entry in experiment [1] is given as “Not Active”.

For H-EKIIAEKEERVSELR-OH, in experiment [1], the half-maximal effective concentration (EC50) result is on record as “Not Active”.

As to H-ELEKIIAEKEERVSE-OH, in experiment [1], the EC50 result is reported as “Not Active”.

On to H-EPSGGLPRGPPEPPD-OH, for which the concentration for a half-maximal effect (EC50) result in experiment [1] is recorded as “Not Active”.

H-GLPRGPPEPPDRLSC-OH: in experiment [1], the 50% effective concentration (EC50) entry is on record as “Not Active”.

For H-GPPEPPDRLSCDGSR-OH, the half-maximal effective concentration (EC50) result in experiment [1] is listed as “Not Active”.

Consider H-GSSTNNNEEEKSRLL-OH, for which the concentration giving a half-maximal response (EC50) entry in experiment [1] is “Not Active”.

Regarding H-HPPTPPEPSGGLPRG-OH, the EC50 result in experiment [1] is reported as “Not Active”.

Take H-IIAEKEERVSELRHQ-OH: the EC50 result in experiment [1] is given as “Not Active”.

As for H-KEERVSELRHQLQSR-OH, the EC50 result in [1] is given as “Not Active”.

On to H-KENRELEKIIAEKEE-OH, for which, in experiment [1], the EC50 entry is “Not Active”.

Take H-KSRLLEKENRELEKI-OH: the EC50 entry in experiment [1] is on record as “Not Active”.

For H-KTGSSTNNNEEEKSR-OH, the 50% effective concentration (EC50) result in [1] was “Not Active”.

With H-LEKENRELEKIIAEK-OH, in experiment [1], the half-maximal effective concentration (EC50) entry is “Not Active”.

Regarding H-LPILHHAYLPSIGGV-OH, the result in [1] was Active.

With H-LQLPILHHAYLPSIG-OH, the result in experiment [1] was Active.

Take H-NEEEKSRLLEKENRE-OH: in experiment [1], the half-maximal effective concentration (EC50) result is given as “Not Active”.

As for H-NNNEEEKSRLLEKEN-OH, the 50% effective concentration (EC50) result in [1] was “Not Active”.

Regarding H-NRELEKIIAEKEERV-OH, the EC50 entry in [1] is given as “Not Active”.

As to H-PPEPSGGLPRGPPEP-OH, the EC50 entry in experiment [1] was “Not Active”.

As to H-PRGPPEPPDRLSCDG-OH, in [1], the concentration giving a half-maximal response (EC50) entry is listed as “Not Active”.

Regarding H-PTPPEPSGGLPRGPP-OH, the EC50 entry in experiment [1] is “Not Active”.

On to H-QDTMKTGSSTNNNEE-OH, for which the EC50 result in experiment [1] was “Not Active”.

Consider H-QLPILHHAYLPSIGG-OH, for which, in experiment [1], the outcome was Active.

On to H-RLLEKENRELEKIIA-OH, for which the half-maximal effective concentration (EC50) entry in [1] is recorded as “Not Active”.

Regarding H-SGGLPRGPPEPPDRL-OH, the half-maximal effective concentration (EC50) entry in experiment [1] is on record as “Not Active”.

As to H-SLQLPIAHHAALPSIGGV-OH, the outcome in experiment [4], in [5], in experiment [7], in experiment [8], in experiment [9] and in experiment [10] was inactive. The outcome in experiment [12] and in experiment [13] was inactive.

For the compound H-SLQLPILHHAYLPSI-OH, in [1], the outcome was Active.

Take H-SLQLPILHHAYLPSIGGV-OH: the result in experiment [4], in experiment [5], in experiment [2], in [3], in [7] and in experiment [8] was Active. Further, the result in experiment [9], in experiment [10], in experiment [11], in experiment [12] and in experiment [13] was Active. The Activity in [6] was 66.4 kDa.

On to H-SLQLPILHHAYLPSYHYY-OH, for which the 50% effective concentration (EC50) in experiment [1] (read-out: EC50) was determined as 0.21 µM. In experiment [14], the IC50 result is recorded as “Nd(Insoluble)” and the Ki result is listed as “Nd(Insoluble)”.

For H-SLQLPILHHAYLPYYHYY-OH, the EC50 in experiment [1] (read-out: EC50) was 1.36 µM. For the same compound, in [14], the IC50 entry was “Nd(Insoluble)” and the Ki entry was “Nd(Insoluble)”.

Consider H-STNNNEEEKSRLLEK-OH, for which, in [1], the EC50 result was “Not Active”.

With H-TMKTGSSTNNNEEEK-OH, the EC50 result in experiment [1] is “Not Active”.

(Values after ChEMBL document CHEMBL4321811, “Targeting the γ-Aminobutyric Acid Type B (GABAB) Receptor Complex: Development of Inhibitors Targeting the K+ Channel Tetramerization Domain (KCTD) Containing Proteins/GABAB Receptor Protein-Protein Interaction” (J Med Chem, 2019).)
